Measurements published in patent US20260206756A1, “COMPOUNDS AND METHODS OF TREATING OR PREVENTING A BACTERIAL INFECTION IN A PLANT” (Ohio State Innovation Foundation, priority 2023, published 2026).
Read-outs that look alike come from different tables or passages of the source.

Legend:
[1] = test system: Pss SM1042-14R on pepper seedlings; assay type: in vivo, Pseudomonas syringae pv. syringae; details: 200 μM, 7 dpi; for Pseudomonas leaf spot incidence, Curative application / Pseudomonas leaf spot incidence, Preventative application: streptomycin 200 μg/ml, CuSO4 200 μM
[2] = test system: Pss SM1042-14R in infested pepper seeds; test: Antimicrobial efficacy on pepper seeds artificially infested with Pss; assay type: in vivo, Pseudomonas syringae pv. syringae; details: 200 μM, 20 min soak
Protocol: Antimicrobial efficacy of ten selected PCs on pepper seeds artificially infested with Pss SM1042-14R. ‘California Wonder’ pepper seeds were used for artificial infestation with Pss SM1042-14R and PC treatment. Inoculum of Pss SM1042-14R was prepared by growing SM1042-14R in M9 minimal medium overnight as described above. The OD600 was adjusted to 0.1; approximately 1×10^8 CFU/ml. The adjusted inoculum (45 ml of inoculum for 4 g seeds) was transferred to a sterile glass beaker and placed in a Nucerite desiccator (Nalge Sybron, Milwaukee, WI, USA). Seeds were vacuum infiltrated with inoculum at 15 PSI for 5 min. Infested seeds were air-dried in a laminar flow hood at room temperature for 12 h. The dried seeds were transferred to 5 ml sterile tubes and soaked in 1 ml of PCs (200 μM) diluted in sterile water for 20 min. The seeds were air-dried again. Seed aliquots were collected at 1, 3-, 10-, 20-, and 30-days post infestation (dpi, 10 seeds per treatment group per time point). Bacterial populations were estimated by macerating five batches of two seeds per treatment group in 400 μl of 1×PBS in a Whirl Pak bag. […] This was performed twice.

[3] = test system: Pseudomonas syringae pv. syringae (Pss) SM156-18; test: Dose-response assay (MIC/MBC) in M9 minimal broth; details: 48 h
Protocol: (§1) Minimum inhibitory concentration (MIC) and minimum bactericidal concentration (MBC) of the 15 PCs against 10 Pss strains. A dose-response assay was conducted with the 15 PCs identified during the primary screening against 10 Pss strains including the model strain, SM1042-14R. The dose-response assay was conducted as described above with concentrations of PCs ranging from 3.125 to 500 μM. Pss treated with non-amended M9 minimal media, 2% DMSO, or 50 μg/ml kanamycin were used as controls. The plate was incubated in a Sunrise Tecan kinetic microplate reader for 48 h at 28° C. The percentage of inhibition and cell viability were determined as described above.

[4] = test system: Pseudomonas syringae pv. syringae (Pss) SM1030-14; test: Dose-response assay (MIC/MBC) in M9 minimal broth; details: 48 h
Protocol: (§2) Primary screening of 4,182 SMs was conducted using a high throughput screening method to identify SMs that inhibited the growth of Pss SM1042-14R strain. A fresh bacterial culture of SM1042-14R was grown in M9 minimal broth in a shaking incubator (180 rpm) for 12 h at 28° C. The bacterial culture was normalized to a final optical density (OD600) of 0.05 (c.a., 8.0×10^7 CFU/ml) using a Genesys 20 spectrophotometer (Thermo Scientific, Rockford, IL, USA). In a sterile flat-bottom 96-well plate, 98 μl of the normalized bacterial suspension was challenged with 2 μl of SMs (final concentration of 200 μM). Controls were bacteria challenged with 2% DMSO (positive control; μc+), 50 μg/ml kanamycin (negative control; μc−), or M9 broth alone (blank control). The plate was incubated in a Sunrise Tecan kinetic microplate reader (Tecan Group Ltd., San Jose, CA, USA) for 48 h at 28° C. OD600 was measured every 30 min.
(§3) The plate was agitated for 15 s at 180 rpm before reading the OD600. Growth inhibition of SM1042-14R by the SMs was calculated using the following formula: % of inhibition=(μc+−X)/(μc+−μc−)×100, where μc+ and μc− is the average final OD600 of the positive and negative controls, respectively, and X is the final OD600 of each of the bacterial culture treated with a designated SM. After the 48 h of incubation with the SMs at 28° C., the viability of the bacterial culture was assessed by plating 5 μl of the culture on YDC (Yeast Dextrose Carbonate) agar medium, incubating the plate at 28° C. and monitoring any bacterial colonies on the plate after 48 h.
(§4) A dose-response assay was conducted with the 15 PCs identified during the primary screening against 10 Pss strains including the model strain, SM1042-14R. The dose-response assay was conducted as described above with concentrations of PCs ranging from 3.125 to 500 μM. Pss treated with non-amended M9 minimal media, 2% DMSO, or 50 μg/ml kanamycin were used as controls. The plate was incubated in a Sunrise Tecan kinetic microplate reader for 48 h at 28° C. The percentage of inhibition and cell viability were determined as described above.

[5] = test system: Pseudomonas syringae pv. syringae (Pss) SM109-18; test: Dose-response assay (MIC/MBC) in M9 minimal broth; details: 48 h
Protocol: as §2, §3, §4

[6] = test system: Pseudomonas syringae pv. syringae (Pss) SM1031-14; test: Dose-response assay (MIC/MBC) in M9 minimal broth; details: 48 h
Protocol: as §2, §3, §4

[7] = test system: Pseudomonas syringae pv. syringae (Pss) SM04-2018-04; test: Dose-response assay (MIC/MBC) in M9 minimal broth; details: 48 h
Protocol: as §1

[8] = test system: Pseudomonas syringae pv. syringae (Pss) SM914-13; test: Dose-response assay (MIC/MBC) in M9 minimal broth; details: 48 h
Protocol: as §1

[9] = test system: Pseudomonas syringae pv. syringae (Pss) SM155-18; test: Dose-response assay (MIC/MBC) in M9 minimal broth; details: 48 h
Protocol: as §2, §3, §4

[10] = test system: Pseudomonas syringae pv. syringae (Pss) SM51-19; test: Dose-response assay (MIC/MBC) in M9 minimal broth; details: 48 h
Protocol: as §1

[11] = test system: Pseudomonas syringae pv. syringae (Pss) SM1038-14; test: Dose-response assay (MIC/MBC) in M9 minimal broth; details: 48 h
Protocol: as §1

[12] = test system: Pseudomonas syringae pv. syringae (Pss) SM1042-14R; test: Dose-response assay (MIC/MBC) in M9 minimal broth; details: strain SM1042-14R, 48 h, 28° C.
Protocol: as §2, §3, §4

[13] = test system: ten Pss strains; test: Dose-response assay (MIC/MBC), summary across ten Pss strains; assay type: cell-based, Pseudomonas syringae pv. syringae; details: Pseudomonas syringae; across the different Pss strains; M9 broth; read-out: MICs and MBCs
[14] = preventative (1 day prior to inoculation)
[15] = strain SM156-18, M9 broth, 28° C.
[16] = strain SM1030-14, M9 broth, 28° C.
[17] = strain SM109-18, M9 broth, 28° C.
[18] = strain SM1031-14, M9 broth, 28° C.
[19] = strain SM04-2018-04, M9 broth, 28° C.
[20] = strain SM914-13, M9 broth, 28° C.
[21] = strain SM155-18, M9 broth, 28° C.
[22] = strain SM51-19, M9 broth, 28° C.
[23] = strain SM1038-14, M9 broth, 28° C.

O=S(=O)([O-])[O-].[Cu+2] [CuSO4, copper sulfate]
57%: Pseudomonas leaf spot incidence, Curative application [1]
1.9±0.5 log CFU/g: reduction in Pss load in infested seeds ([2]; 20 days post infestation)
188.4±163.5 lesions: disease severity (number of lesions per two leaves) [1, 14]
28.1±13.9 lesions: disease severity (number of lesions per two leaves) ([1]; curative (1 dpi), first trial)
0.05±0.01 log CFU/g: reduction in Pss load compared to the DMSO group [1, 14]
1.1±0.5 log CFU/g: Pss reduction compared to the DMSO group ([1]; curative (1 dpi))
100%: Pseudomonas leaf spot incidence, Preventative application [1]

CCCCCCCCCCCCCCCCn1c[n+](C)c2ccccc21 [PC1]
6.25 µM: MIC ([3]; Pseudomonas syringae) | MIC ([4]; Pseudomonas syringae) | MIC ([5]; Pseudomonas syringae) | MIC ([6]; Pseudomonas syringae) | MIC ([7]; Pseudomonas syringae) | MIC ([8]; Pseudomonas syringae) | MIC ([9]; Pseudomonas syringae) | MIC ([10]; Pseudomonas syringae)
100%: Pseudomonas leaf spot incidence, Preventative application [1]
12.5 µM: MBC ([3]; Pseudomonas syringae) | MBC ([5]; Pseudomonas syringae) | MBC ([6]; Pseudomonas syringae) | MBC ([7]; Pseudomonas syringae) | MBC ([8]; Pseudomonas syringae) | MBC ([9]; Pseudomonas syringae) | MBC ([10]; Pseudomonas syringae) | MIC ([11]; Pseudomonas syringae)
25 µM: MBC ([4]; Pseudomonas syringae) | MBC ([11]; Pseudomonas syringae)
86%: Pseudomonas leaf spot incidence, Curative application [1]

CCN1/C(=C/c2ccc3ccccc3[n+]2CC)C=Cc2ccccc21 [PC2]
6.25 µM: MIC ([3]; Pseudomonas syringae) | MIC ([4]; Pseudomonas syringae) | MIC ([6]; Pseudomonas syringae) | MIC ([7]; Pseudomonas syringae) | MIC ([8]; Pseudomonas syringae) | MIC ([10]; Pseudomonas syringae)
50 µM: MBC ([4]; Pseudomonas syringae) | MBC ([10]; Pseudomonas syringae)
12.5 µM: MBC ([5]; Pseudomonas syringae) | MIC ([5]; Pseudomonas syringae) | MIC ([9]; Pseudomonas syringae) | MIC ([11]; Pseudomonas syringae)
86%: Pseudomonas leaf spot incidence, Curative application [1]
25 µM: MBC ([3]; Pseudomonas syringae) | MBC ([6]; Pseudomonas syringae) | MBC ([7]; Pseudomonas syringae) | MBC ([8]; Pseudomonas syringae) | MBC ([9]; Pseudomonas syringae) | MBC ([11]; Pseudomonas syringae)
100%: Pseudomonas leaf spot incidence, Preventative application [1]

CCCCCCCCCCCCCCCC[n+]1ccn(CC#N)c1.[Cl-] [PC3]
100%: Pseudomonas leaf spot incidence, Preventative application [1]
86%: Pseudomonas leaf spot incidence, Curative application [1]
25 µM: MBC [12] | MIC [12] | MIC [3, 15] | MIC [4, 16] | MBC [5, 17] | MIC [5, 17] | MBC [6, 18] | MIC [6, 18] | MBC [7, 19] | MBC [8, 20] | MIC [9, 21] | MIC [10, 22] | MIC [11, 23]
12.5 µM: MIC [7, 19] | MIC [8, 20]
50 µM: MBC [3, 15] | MBC [4, 16] | MBC [9, 21] | MBC [10, 22] | MBC [11, 23]

CC1CCC(C(C)C)C(OC(=O)Cn2c[n+](CC(=O)OC3CC(C)CCC3C(C)C)c3ccccc32)C1 (stereo not shown) [PC4]
100%: Pseudomonas leaf spot incidence, Curative application [1] | Pseudomonas leaf spot incidence, Preventative application [1]
25 µM: MBC ([7]; Pseudomonas syringae) | MBC ([9]; Pseudomonas syringae)
12.5 µM: MBC ([3]; Pseudomonas syringae) | MIC ([3]; Pseudomonas syringae) | MBC ([4]; Pseudomonas syringae) | MIC ([4]; Pseudomonas syringae) | MBC ([5]; Pseudomonas syringae) | MIC ([5]; Pseudomonas syringae) | MBC ([6]; Pseudomonas syringae) | MIC ([6]; Pseudomonas syringae) | MIC ([7]; Pseudomonas syringae) | MBC ([8]; Pseudomonas syringae) | MIC ([8]; Pseudomonas syringae) | MIC ([9]; Pseudomonas syringae) | MBC ([10]; Pseudomonas syringae) | MIC ([10]; Pseudomonas syringae) | MBC ([11]; Pseudomonas syringae) | MIC ([11]; Pseudomonas syringae)

CCOc1ccc2nc3cc(N)ccc3c(N)c2c1 [PC7]
100 µM: MBC [12] | MBC [3, 15] | MBC [4, 16] | MBC [5, 17] | MBC [6, 18] | MBC [7, 19] | MBC [9, 21] | MBC [11, 23]
25 µM: MIC [8, 20]
200 µM: MBC [10, 22]
86%: Pseudomonas leaf spot incidence, Preventative application [1]
50 µM: MIC [12] | MIC [3, 15] | MIC [4, 16] | MIC [5, 17] | MIC [6, 18] | MIC [7, 19] | MBC [8, 20] | MIC [9, 21] | MIC [10, 22] | MIC [11, 23]

COc1cc(CN(C)Cc2ccccc2)ccc1OCC(O)CN1CCCCCCC1 (stereo not shown) [PC9]
71%: Pseudomonas leaf spot incidence, Curative application [1]
1.9±0.7 log CFU/g: Pss reduction compared to the DMSO group ([1]; curative (1 dpi))
50 to 200 µM: MBC [13]
100 µM: MIC ([4]; Pseudomonas syringae) | MIC ([5]; Pseudomonas syringae) | MIC ([7]; Pseudomonas syringae) | MIC ([9]; Pseudomonas syringae) | MIC ([10]; Pseudomonas syringae) | MIC ([11]; Pseudomonas syringae)
100%: Pseudomonas leaf spot incidence, Preventative application [1]
200 µM: MBC ([3]; Pseudomonas syringae) | MIC ([3]; Pseudomonas syringae) | MBC ([4]; Pseudomonas syringae) | MBC ([5]; Pseudomonas syringae) | MBC ([6]; Pseudomonas syringae) | MIC ([6]; Pseudomonas syringae) | MBC ([7]; Pseudomonas syringae) | MBC ([8]; Pseudomonas syringae) | MIC ([8]; Pseudomonas syringae) | MBC ([9]; Pseudomonas syringae) | MBC ([10]; Pseudomonas syringae) | MBC ([11]; Pseudomonas syringae)

Cn1cc(CNCCCn2ccnc2)c(-c2ccc(Oc3ccccc3)cc2)n1 [PC10]
200 µM: MBC ([3]; Pseudomonas syringae) | MIC ([3]; Pseudomonas syringae) | MBC ([4]; Pseudomonas syringae) | MIC ([4]; Pseudomonas syringae) | MBC ([5]; Pseudomonas syringae) | MIC ([5]; Pseudomonas syringae) | MBC ([6]; Pseudomonas syringae) | MIC ([6]; Pseudomonas syringae) | MBC ([7]; Pseudomonas syringae) | MIC ([7]; Pseudomonas syringae) | MBC ([8]; Pseudomonas syringae) | MIC ([8]; Pseudomonas syringae) | MBC ([9]; Pseudomonas syringae) | MIC ([9]; Pseudomonas syringae) | MBC ([10]; Pseudomonas syringae) | MIC ([10]; Pseudomonas syringae) | MBC ([11]; Pseudomonas syringae) | MIC ([11]; Pseudomonas syringae)
71%: Pseudomonas leaf spot incidence, Curative application [1]
50 to 200 µM: MBC [13]
100%: Pseudomonas leaf spot incidence, Preventative application [1]
1.9±0.2 log CFU/g: reduction in Pss load in infested seeds ([2]; 30 dpi)
